1 molecule from patent US9375013B2, “Herbicidal composition” (ISHIHARA SANGYO KAISHA, LTD., priority 2013, dated 2016) can be followed below.

Type in all cases: in vivo
For assay [1], the system named is shattercane (Sorghum bicolor (L.) Moench.). In words: Test Example 6: pot soil treatment, growth inhibition of shattercane. As to conditions: dose 100 g/ha, 22nd day after treatment, read-out: Growth inhibition rate (%) of shattercane, Measured value. The source says: On the 14th day after treatment, the state of growth of the summergrass was visually observed to determine the growth inhibition rate in accordance with the following evaluation standard. The growth inhibition rate (%) (measured value) and the growth inhibition rate (%) (calculated value) calculated by the Colby's formula are shown in Table 1. Growth inhibition rate (%)=0 (equivalent to the non-treated area) to 100 (complete kill)
Upland field soil was put into a 1/160,000 ha pot, and seeds of shattercane (Sorghum bicolor (L.) Moench.) were sown. On the next day, predetermined amounts of flazasulfuron and hexazinone were diluted with water (in an amount corresponding to 300 L/ha), and applied for soil treatment by a small sprayer.
On the 22nd day after treatment, the state of growth of the shattercane was visually observed to determine the growth inhibition rate. The growth inhibition rate (%) (measured value) and the growth inhibition rate (%) calculated in the same manner as in Test Example 1 are shown in Table 6.

Assay [2] concerns ivy-leaved morningglory (Ipomoea hederacea (L.) Jacq.). In words: Test Example 2: pot soil treatment, growth inhibition of ivy-leaved morningglory. As to conditions: 22nd day after treatment, read-out: Growth inhibition rate (%) of ivy-leaved morningglory, Measured value. The source says:
(§1) On the 14th day after treatment, the state of growth of the summergrass was visually observed to determine the growth inhibition rate in accordance with the following evaluation standard. The growth inhibition rate (%) (measured value) and the growth inhibition rate (%) (calculated value) calculated by the Colby's formula are shown in Table 1. Growth inhibition rate (%)=0 (equivalent to the non-treated area) to 100 (complete kill) Upland field soil was put into a 1/160,000 ha pot, and seeds of ivy-leaved morningglory (Ipomoea hederacea (L.) Jacq.) were sown. On the next day, predetermined amounts of flazasulfuron and hexazinone were diluted with water (in an amount corresponding to 300 L/ha), and applied for soil treatment by a small sprayer. On the 22nd day after treatment, the state of growth of the ivy-leaved morningglory was visually observed to determine the growth inhibition rate. The growth inhibition rate (%) (measured value) and the growth inhibition rate (%) calculated in the same manner as in Test Example 1 are shown in Table 2.

The test system of assay [3] is field bindweed (Convolvulus arvensis L.). In words: Test Example 5: pot soil treatment, growth inhibition of field bindweed. The conditions noted are these: dose 300 g/ha, 22nd day after treatment, read-out: Growth inhibition rate (%) of field bindweed, Measured value.
Text: as §1, with “field bindweed (Convolvulus arvensis L.)” for “ivy-leaved morningglory (Ipomoea hederacea (L.) Jacq.)”, “field bindweed” for “ivy-leaved morningglory”, “5.” for “2.”

Assay [4] has as its system persian speedwell (Veronica persica Poiret.). In words: Test Example 10: pot soil treatment, growth inhibition of persian speedwell. As to conditions: dose 100 g/ha, 21st day after treatment, read-out: Growth inhibition rate (%) of persian speedwell, Measured value.
Assay [5] has as its system barnyardgrass (Echinochloa crus-galli L). In words: Test Example 9: pot soil treatment, growth inhibition of barnyardgrass. The conditions noted are these: dose 100 g/ha, 21st day after treatment, read-out: Growth inhibition rate (%) of barnyardgrass, Measured value.
Text: as §1, with “barnyardgrass (Echinochloa crus-galli L)” for “ivy-leaved morningglory (Ipomoea hederacea (L.) Jacq.)”, “21st” for “22nd”, “barnyardgrass” for “ivy-leaved morningglory”, “9.” for “2.”

The subject of assay [6] is velvetleaf (Abutilon theophrasti MEDIC.). In words: Test Example 14: pot soil treatment, growth inhibition of velvetleaf. The conditions noted are these: dose 200 g/ha, 21st day after treatment, read-out: Growth inhibition rate (%) of velvetleaf, Measured value.
Text: as §1, with “velvetleaf (Abutilon theophrasti MEDIC.)” for “ivy-leaved morningglory (Ipomoea hederacea (L.) Jacq.)”, “21st” for “22nd”, “velvetleaf” for “ivy-leaved morningglory”, “14.” for “2.”

On to `CN(C)c1nc(=O)n(C2CCCCC2)c(=O)n1C` [Hexazinone, hexazinone], for which the inhibition (as a rule, the drop in the measured response relative to a control, in per cent) at 100 g/ha in assay [1] was found to be 0%; in assay [2] (dose 100 g/ha) it was 0%; in assay [4], 85%; in assay [5], 0%. Moreover, the inhibition at 200 g/ha in assay [2] (dose 200 g/ha) and in assay [6] was 30% in each case. Also, the inhibition at 300 g/ha in assay [2] (dose 300 g/ha) came to 40%; in assay [3] it was 15%.
